Data published in patent publication US7803803B2, “Tetrahydrofuro[3,2-B] pyrrol-3-ones as cathepsin K inhibitors” (Amura Therapeutics Limited, priority 2007, dated 2010).
Read-outs that look alike come from different tables or passages of the source.

Key:
human osteoclasts = assay: Human osteoclast resorption assay; type: cell-based; conditions: read-out: Cell-based Human IC50
Experimental: Bone resorption was studied using a model where human osteoclast precursor cells were cultured on bovine bone slices for 9 days and allowed to differentiate into bone-resorbing osteoclasts. The formed mature osteoclasts were then allowed to resorb bone. The assay was performed by Pharmatest Services Ltd, Itäinen Pitkakatu 4C, Turku, Finland. After the culture period, bone collagen degradation products were quantified from the culture medium as an index of bone resorption. Inhibitor compounds were added into the cell cultures after the differentiation period and their effects on the resorbing activity of mature osteoclasts were determined. The studies included a baseline group without added compounds and a positive control group where a potent cathepsin K inhibitor E-64 was added.
Human peripheral blood monocytes were suspended to culture medium and allowed to attach to bovine bone slices. The bone slices were transferred into 96-well tissue culture plates containing culture medium with appropriate amounts of important growth factors favouring osteoclast differentiation, including M-CSF, RANK-ligand and TGF-[…]. The cells were incubated in a CO2 incubator in humidified atmosphere of 95% air and 5% carbon dioxide at 37° C. At day 7 when osteoclast differentiation was complete, the culture medium was replaced with culture medium containing conditions favouring osteoclast activity. The cell culture was continued for an additional 2 days, during which the formed mature osteoclasts were allowed to resorb bone in the presence of vehicle, control inhibitor (E64) or test compounds. At the end of the culture, bone collagen degradation products released into the culture medium were determined using a commercially available ELISA method (CrossLaps® for culture, Nordic Bioscience, Herlev, Denmark) as an index of bone resorption (see Bagger, Y. Z. et al, J. Bone. Miner. Res. 14 (suppl. 1), S370).

[1] = Plasma incubations (human plasma stability); type: in vitro ADME; conditions: 37° C. Also: tested at 25 µM.
Experimental: Aliquots were removed at 2 and 60 minutes and quenched with an equal volume of cold acetonitrile. After mixing vigorously, the precipitated protein matter was removed by filtration (Multiscreen Solvinert filter plates, Millipore, Bedford, Mass., USA) and the filtrate analysed by reverse phase HPLC with mass spectrometric detection, using single ion monitoring of the [M+H]^+ species. Metabolic turnover was determined by comparison of peak areas from the ion chromatograms of the parent compound at 2 and 60 minutes and expressed as percent remaining at 1 hour.

LogD determinations = type: physicochemical; conditions: Ion-count method; for logD at 1 h: 1-octanol/phosphate buffered saline, pH 7.4, pH 7.4
Experimental: LogD(PBS) determinations were performed in 96 well microtitre plates using a miniaturised “shake-flask” method. […] The plates were then capped and mixed vigorously for 1 hour on a microtitre plate shaker, after which they were left to stand, allowing the PBS and octanol phases to separate. The PBS layer was analysed by reverse phase HPLC with mass spectrometric detection, using single ion monitoring of the [M+H]^+ species.
Where AUCstd and AUCpbs are the peak areas from the standard and test ion chromatograms respectively.

cathepsin K = target: T1, cathepsin K (Homo sapiens, UniProt P43235); assay: In vitro cathepsin Ki inhibition measurements; type: biochemical; set-up: purchased B. Turk, Josef Stefan Institute, Ljubljana, Slovenia
T1 sequence (P43235 115-329): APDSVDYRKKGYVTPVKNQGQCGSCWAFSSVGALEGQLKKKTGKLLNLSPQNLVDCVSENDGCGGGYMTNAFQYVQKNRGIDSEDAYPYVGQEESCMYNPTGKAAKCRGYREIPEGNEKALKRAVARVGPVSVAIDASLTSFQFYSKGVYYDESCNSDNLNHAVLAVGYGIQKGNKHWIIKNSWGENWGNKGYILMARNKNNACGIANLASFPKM
Experimental: Stock solutions of substrate or inhibitor were made up to 10 mM in 100% dimethylsulfoxide (DMSO) (Rathburns, Glasgow, U.K.) and diluted as appropriately required. In all cases the DMSO concentration in the assays was maintained at less than 1% (vol./vol.). The equilibrium inhibition constants (Ki^SS) for each compound were measured under steady-state conditions monitoring enzyme activity as a function of inhibitor concentration. The values were calculated on the assumption of pure competitive behaviour (Cornish-Bowden, A. Fundamentals of enzyme kinetics Portland Press; 1995, 93-128). Human recombinant cathepsin K (0.25 nM final; B. Turk, Josef, Stefan Institute, Ljubljana, Slovenia), was routinely assayed in 100 mM sodium acetate; pH 5.5 containing 1 mM EDTA, 10 mM L-cysteine and 1.8 μM Z-Leu-Arg-AMC ([S]═KM).
The apparent inhibition constant (Ki) for each compound was determined on the basis that inhibition was reversible and occurred by a pure-competitive mechanism. The Ki values were calculated, from the dependence of enzyme activity as a function of inhibitor concentration, by direct regression analysis (Prism v 3.02) using Equation 2 (Cornish-Bowden, A., 1995).
In situations where the apparent dissociation constant (Ki^app) approached the enzyme concentrations, the Ki^app values were calculated using a quadratic solution in the form described by Equation 3 (Morrison, J. F. Trends Biochem. Sci., 7, 102-105, 1982; Morrison, J. F. Biochim. Biophys. Acta, 185, 269-286, 1969; Stone, S. R. and Hofsteenge, J. Biochemistry, 25, 4622-4628, 1986).
Curves were fitted by non-linear regression analysis (Prism) using a fixed value for the enzyme concentration. Equation 4 was used to account for the substrate kinetics, where ‘Ki’ is the inhibition constant, ‘[So]’ is the initial substrate concentration and ‘KM^app’ is the apparent macroscopic binding (Michaelis) constant for the substrate (Morrison, 1982).

[2] = human recombinant cathepsin K, read-out: In vitro Ki (nM) vs Cath K
[3] = prior art examples of WO-A-02057270, recombinant human cathepsin K, read-out: Ki (nM) vs Human Cathepsin K

Q: Which IC50 (human osteoclasts) does the source give for `CO[C@H]1CN(C(=O)[C@@H](NC(=O)c2ccc(N3CCN(C)CC3)cc2)C2CCCC2)[C@@H]2C(=O)CO[C@H]12` here?
A: 52 nM

Q: And the “Human Plasma Stability % rem. @ 1 h” value [1]?
A: 93.6%

Q: What about the logD at 1 h (LogD determinations) of the same compound?
A: 1.36

Q: What about the Ki (cathepsin K; [2]) of the same compound?
A: 1.8 nM

Q: For `CCN1CCN(c2ccc(C(=O)N[C@H](C(=O)N3C[C@H](OC)[C@H]4OCC(=O)[C@H]43)C3CCCC3)cc2)CC1`, which “Human Plasma Stability % rem. @ 1 h” value [1] is on record?
A: 90.9%

Q: What about the logD at 1 h (LogD determinations) of the same compound?
A: 1.59

Q: What about the Ki (cathepsin K; [2]) of the same compound?
A: 3.6 nM

Q: Which IC50 (human osteoclasts) does the source give for `CO[C@@H]1CN(C(=O)[C@@H](NC(=O)c2ccc(N3CCN(C)CC3)cc2)C2CCCC2)[C@@H]2C(=O)CO[C@@H]21` here?
A: 637 nM

Q: What about the “Human Plasma Stability % rem. @ 1 h” value [1] of the same compound?
A: 91.8%

Q: What about the logD at 1 h (LogD determinations) of the same compound?
A: 0.75

Q: And the Ki (cathepsin K; [2])?
A: 4.9 nM

Q: What does the source list for `CCN1CCN(c2ccc(C(=O)N[C@H](C(=O)N3C[C@@H](OC)[C@H]4OCC(=O)[C@H]43)C3CCCC3)cc2)CC1`?
A: IC50 (human osteoclasts): 231 nM; Human Plasma Stability % rem. @ 1 h [1]: 90.7%; logD at 1 h (LogD determinations): 0.95; Ki (cathepsin K; [2]): 3.4 nM

Q: With “4-(4-ethylpiperazin-1-yl)-N—((S)-1-((3aS,6R,6aS)-6-methoxy-3-oxodihydro-2H-furo[3,2-b]pyrrol-4(5H,6H,6aH)-yl)-4-methyl-1-oxopentan-2-yl)benzamide [Example 7]” as the compound, how does the Ki (cathepsin K; [3]) read?
A: > 15000 nM

Q: Which Ki (cathepsin K; [3]) does the source give for “4-(4-ethylpiperazin-1-yl)-N—((S)-1-((3aS,6S,6aS)-6-methoxy-3-oxodihydro-2H-furo[3,2-b]pyrrol-4(5H,6H,6aH)-yl)-4,4dimethyl-1-oxopentan-2-yl)benzamide [Example 6]” here?
A: > 20000 nM

Q: Which Ki (cathepsin K; [3]) does the source give for “4-(4-ethylpiperazin-1-yl)-N—((S)-1-((3aS,6S,6aS)-6-methoxy-3-oxodihydro-2H-furo[3,2-b]pyrrol-4(5H,6H,6aH)-yl)-4-methyl-1-oxopentan-2-yl)benzamide [Example 5]” here?
A: > 100000 nM

Q: What does the source list for `CO[C@@H]1CN(C(=O)[C@H](CC(C)C)NC(=O)c2ccc(N3CCN(C)CC3)cc2)[C@@H]2C(=O)CO[C@@H]21` [Example 3, N—((S)-1-((3aS,6R,6aS)-6-methoxy-3-oxodihydro-2H-furo[3,2-b]pyrrol-4(5H,6H,6aH)-yl)-4-methyl-1-oxopentan-2-yl)-4-(4-methylpiperazin-1-yl)benzamide]?
A: Human Plasma Stability % rem. @ 1 h [1]: 87%; LogD pH 7.4 (LogD determinations): 0.42; Ki (cathepsin K; [2]): 15.1 nM

Q: Which “Human Plasma Stability % rem. @ 1 h” value [1] does the source give for `CCN1CCN(c2ccc(C(=O)N[C@@H](CC(C)(C)C)C(=O)N3C[C@H](OC)[C@H]4OCC(=O)[C@H]43)cc2)CC1` [Example 6, 4-(4-ethylpiperazin-1-yl)-N—((S)-1-((3aS,6S,6aS)-6-methoxy-3-oxodihydro-2H-furo[3,2-b]pyrrol-4(5H,6H,6aH)-yl)-4,4dimethyl-1-oxopentan-2-yl)benzamide] here?
A: 100%

Q: And the logD at 1 h (LogD determinations)?
A: > 0.8

Q: And the “LogD pH 7.4” value (LogD determinations)?
A: 1.46

Q: And the Ki (cathepsin K; [2])?
A: 5.1 nM

Q: Which “Human Plasma Stability % rem. @ 1 h” value [1] does the source give for `CCCN1CCN(c2ccc(C(=O)N[C@@H](CC(C)C)C(=O)N3C[C@H](OC)[C@H]4OCC(=O)[C@H]43)cc2)CC1` [Example 13, N—((S)-1-((3aS,6S,6aS)-6-methoxy-3-oxodihydro-2H-furo[3,2-b]pyrrol-4(5H,6H,6aH)-yl)-4-methyl-1-oxopentan-2-yl)-4-(4-propylpiperazin-1-yl)benzamide] here?
A: 93%

Q: What about the “LogD pH 7.4” value (LogD determinations) of the same compound?
A: 1.64

Q: What about the Ki (cathepsin K; [2]) of the same compound?
A: 3.9 nM

Q: Which “Human Plasma Stability % rem. @ 1 h” value [1] does the source give for `CCCN1CCN(c2ccc(C(=O)N[C@@H](CC(C)(C)C)C(=O)N3C[C@H](OC)[C@H]4OCC(=O)[C@H]43)cc2)CC1` [Example 14, N—((S)-1-((3aS,6S,6aS)-6-methoxy-3-oxodihydro-2H-furo[3,2-b]pyrrol-4(5H,6H,6aH)-yl)-4,4-dimethyl-1-oxopentan-2-yl)-4-(4-propylpiperazin-1-yl)benzamide] here?
A: 98%

Q: And the “LogD pH 7.4” value (LogD determinations)?
A: 1.74

Q: And the Ki (cathepsin K; [2])?
A: 8.6 nM

Q: For `COCCN1CCN(c2ccc(C(=O)N[C@@H](CC(C)C)C(=O)N3C[C@@H](N)[C@H]4OCC(=O)[C@H]43)cc2)CC1` [Example 24, N—((S)-1-((3aS,6R,6aR)-6-amino-3-oxodihydro-2H-furo[3,2-b]pyrrol-4(5H,6H,6aH)-yl)-4-methyl-1-oxopentan-2-yl)-4-(4-(2-methoxyethyl)piperazin-1-yl)benzamide], which “Human Plasma Stability % rem. @ 1 h” value [1] is on record?
A: 96%

Q: What about the logD at 1 h (LogD determinations) of the same compound?
A: 0.01 to 0.76

Q: What about the “LogD pH 7.4” value (LogD determinations) of the same compound?
A: 0.01

Q: What about the Ki (cathepsin K; [2]) of the same compound?
A: 3.5 nM

Q: For “N—((S)-1-((3aS,6R,6aR)-6-amino-3-oxodihydro-2H-furo[3,2-b]pyrrol-4(5H,6H,6aH)-yl)-4-methyl-1-oxopentan-2-yl)-4-(4-(2-methoxyethyl)piperazin-1-yl)benzamide [Example 24]”, which Ki (cathepsin K; [3]) is on record?
A: > 2000 nM

Q: With “N—((S)-1-((3aS,6R,6aS)-6-hydroxy-3-oxodihydro-2H-furo[3,2-b]pyrrol-4(5H,6H,6aH)-yl)-4-methyl-1-oxopentan-2-yl)-4-(4-(2-methoxyethyl)piperazin-1-yl)benzamide [Example 26]” as the compound, how does the Ki (cathepsin K; [3]) read?
A: > 8000 nM

Q: For “N—((S)-1-((3aS,6R,6aS)-6-methoxy-3-oxodihydro-2H-furo[3,2-b]pyrrol-4(5H,6H,6aH)-yl)-4,4-dimethyl-1-oxopentan-2-yl)-4-(1-propylpiperidin-4-yl)benzamide [Example 38]”, which Ki (cathepsin K; [3]) is on record?
A: > 4000 nM

Q: For “N—((S)-1-((3aS,6R,6aS)-6-methoxy-3-oxodihydro-2H-furo[3,2-b]pyrrol-4(5H,6H,6aH)-yl)-4,4-dimethyl-1-oxopentan-2-yl)-4-(4-methylpiperazin-1-yl)benzamide [Example 4]”, which Ki (cathepsin K; [3]) is on record?
A: > 100000 nM

Q: For “N—((S)-1-((3aS,6R,6aS)-6-methoxy-3-oxodihydro-2H-furo[3,2-b]pyrrol-4(5H,6H,6aH)-yl)-4-methyl-1-oxopentan-2-yl)-4-(4-(2-methoxyethyl)piperazin-1-yl)benzamide [Example 28]”, which Ki (cathepsin K; [3]) is on record?
A: > 2500 nM

Q: With “N—((S)-1-((3aS,6R,6aS)-6-methoxy-3-oxodihydro-2H-furo[3,2-b]pyrrol-4(5H,6H,6aH)-yl)-4-methyl-1-oxopentan-2-yl)-4-(4-methylpiperazin-1-yl)benzamide [Example 3]” as the compound, how does the Ki (cathepsin K; [3]) read?
A: > 4000 nM

Q: Which Ki (cathepsin K; [3]) does the source give for “N—((S)-1-((3aS,6S,6aR)-6-amino-3-oxodihydro-2H-furo[3,2-b]pyrrol-4(5H,6H,6aH)-yl)-4-methyl-1-oxopentan-2-yl)-4-(4-(2-methoxyethyl)piperazin-1-yl)benzamide [Example 23]” here?
A: > 3000 nM

Q: With “N—((S)-1-((3aS,6S,6aS)-6-methoxy-3-oxodihydro-2H-furo[3,2-b]pyrrol-4(5H,6H,6aH)-yl)-4,4-dimethyl-1-oxopentan-2-yl)-4-(4-methylpiperazin-1-yl)benzamide [Example 2]” as the compound, how does the Ki (cathepsin K; [3]) read?
A: > 50000 nM

Q: With “N—((S)-1-((3aS,6S,6aS)-6-methoxy-3-oxodihydro-2H-furo[3,2-b]pyrrol-4(5H,6H,6aH)-yl)-4-methyl-1-oxopentan-2-yl)-4-(4-(2-methoxyethyl)piperazin-1-yl)benzamide [Example 27]” as the compound, how does the Ki (cathepsin K; [3]) read?
A: > 20000 nM

Q: Which Ki (cathepsin K; [3]) does the source give for “N—((S)-1-((3aS,6S,6aS)-6-methoxy-3-oxodihydro-2H-furo[3,2-b]pyrrol-4(5H,6H,6aH)-yl)-4-methyl-1-oxopentan-2-yl)-4-(4-methylpiperazin-1-yl)benzamide [Example 1]” here?
A: > 20000 nM
